Reference: patent publication US9669034B2, “4-aryl-N-phenyl-1,3,5-triazin-2-amines containing a sulfoximine group” (BAYER INTELLECTUAL PROPERTY GMBH, priority 2011, dated 2017)

Experiments:
[1] = biological target: CDK2/CycE (Homo sapiens (Human), UniProt P24941); test: CDK2/CycE kinase assay (TR-FRET); type: biochemical; conditions: Method 2
Text: 2. CDK2/CycE Kinase Assay:
CDK2/CycE—inhibitory activity of compounds of the present invention was quantified employing the CDK2/CycE TR-FRET assay as described in the following paragraphs:
Recombinant fusion proteins of GST and human CDK2 and of GST and human CycE, expressed in insect cells (Sf9) and purified by Glutathion-Sepharose affinity chromatography, were purchased from ProQinase GmbH (Freiburg, Germany). As substrate for the kinase reaction biotinylated peptide biotin-Ttds-[…]

[2] = biological target: CDK9/CycT1 (Homo sapiens (Human), UniProt P50750); test: CDK9/CycT1 kinase assay (TR-FRET); type: biochemical; conditions: Method 1
Chain of CDK9/CycT1 (P50750 whole entry): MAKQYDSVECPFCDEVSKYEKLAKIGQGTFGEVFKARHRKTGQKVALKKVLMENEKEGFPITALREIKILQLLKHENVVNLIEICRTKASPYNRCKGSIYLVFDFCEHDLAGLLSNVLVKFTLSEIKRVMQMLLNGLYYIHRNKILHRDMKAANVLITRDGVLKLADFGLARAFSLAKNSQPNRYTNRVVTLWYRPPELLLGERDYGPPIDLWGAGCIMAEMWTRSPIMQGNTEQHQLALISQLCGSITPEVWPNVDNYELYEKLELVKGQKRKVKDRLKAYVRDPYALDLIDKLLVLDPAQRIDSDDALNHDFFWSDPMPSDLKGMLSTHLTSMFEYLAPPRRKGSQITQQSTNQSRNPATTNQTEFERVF
Chain of CDK9/CycT1 (O60563 whole entry partner): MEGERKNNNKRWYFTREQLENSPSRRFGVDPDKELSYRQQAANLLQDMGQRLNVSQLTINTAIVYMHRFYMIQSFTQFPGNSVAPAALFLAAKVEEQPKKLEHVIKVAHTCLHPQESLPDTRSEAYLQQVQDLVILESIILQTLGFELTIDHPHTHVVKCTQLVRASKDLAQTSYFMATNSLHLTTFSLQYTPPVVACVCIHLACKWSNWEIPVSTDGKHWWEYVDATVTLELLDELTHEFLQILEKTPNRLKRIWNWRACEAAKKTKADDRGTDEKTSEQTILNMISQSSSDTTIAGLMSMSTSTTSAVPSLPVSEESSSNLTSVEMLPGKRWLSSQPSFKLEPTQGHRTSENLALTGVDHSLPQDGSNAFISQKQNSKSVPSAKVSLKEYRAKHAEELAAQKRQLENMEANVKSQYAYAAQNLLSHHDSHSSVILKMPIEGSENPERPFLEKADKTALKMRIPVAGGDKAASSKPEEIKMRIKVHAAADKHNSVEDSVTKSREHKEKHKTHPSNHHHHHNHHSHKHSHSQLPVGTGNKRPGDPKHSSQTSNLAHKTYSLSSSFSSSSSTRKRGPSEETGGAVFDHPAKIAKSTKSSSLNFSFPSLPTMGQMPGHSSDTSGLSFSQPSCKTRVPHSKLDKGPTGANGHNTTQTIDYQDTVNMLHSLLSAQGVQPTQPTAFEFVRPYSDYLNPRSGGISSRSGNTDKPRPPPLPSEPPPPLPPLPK
Text: 1. CDK9/CycT1 Kinase Assay:
CDK9/CycT1—inhibitory activity of compounds of the present invention was quantified employing the CDK9/CycT1 TR-FRET assay as described in the following paragraphs:
Recombinant full-length His-tagged human CDK9 and CycT1, expressed in insect cells and purified by Ni-NTA affinity chromatography, were purchased from Invitrogen (Cat. No PV4131). As substrate for the kinase reaction biotinylated peptide biotin-Ttds-[…]

Row | IC50 [1] | IC50 [2] | SMILES
1 | 0.54 µM |  | COc1cc(F)ccc1-c1ncnc(Nc2cc(F)cc(CS(C)(=N)=O)c2)n1 (single isomer, unassigned) [Example 53, 4-(4-Fluoro-2-methoxyphenyl)-N-{3-fluoro-5-[(S-methylsulfonimidoyl)methyl]phenyl}-1,3,5-triazin-2-amine]
2 | 3.5 µM | 22 nM | CC(Oc1cc(F)ccc1-c1ncnc(Nc2cccc(CS(C)(=N)=O)c2)n1)c1ccc(F)cc1 (stereo not shown) [Example 69, 4-{4-Fluoro-2-[1-(4-fluorophenyl)ethoxy]phenyl}-N-{3-[(S-methylsulfonimidoyl)methyl]phenyl}-1,3,5-triazin-2-amine]
3 | 9 µM | 820 nM | CCOC(=O)N=S(C)(=O)Cc1cccc(Nc2ncnc(-c3cccc(Cl)c3OC)n2)c1 (racemic) [Example 45, (rac)-Ethyl [(3-{[4-(3-chloro-2-methoxyphenyl)-1,3,5-triazin-2-yl]amino}benzyl)(methyl)oxido-λ^6-sulfanylidene]carbamate]
4 | 0.22 µM | 7 nM | [2H]c1c([2H])c([2H])c(C([2H])([2H])Oc2cc(F)ccc2-c2ncnc(Nc3cccc(CS(C)(=N)=O)c3)n2)c([2H])c1[2H] (racemic) [Example 62, (rac)-4-(4-Fluoro-2-{[(^2H5)phenyl(^2H2)methyl]oxy}phenyl)-N-{3-[(S-methylsulfonimidoyl)methyl]phenyl}-1,3,5-triazin-2-amine]
5 | 3.3 µM | 13 nM | CCOC(=O)N=S(C)(=O)Cc1cccc(Nc2ncnc(-c3ccccc3OCc3ccc(Cl)c(Cl)c3)n2)c1 (racemic) [Example 60, (rac)-Ethyl [{3-[(4-{2-[(3,4-dichlorobenzyl)oxy]phenyl}-1,3,5-triazin-2-yl)amino]benzyl}(methyl)oxido-λ^6-sulfanylidene]carbamate]
6 | 1.2 µM | 15 nM | CS(=N)(=O)Cc1cccc(Nc2ncnc(-c3ccccc3OCc3ccc(Cl)c(Cl)c3)n2)c1 (racemic) [Example 61, (rac)-4-{2-[(3,4-Dichlorobenzyl)oxy]phenyl}-N-{3-[(S-methylsulfonimidoyl)methyl]phenyl}-1,3,5-triazin-2-amine]
7 | 5.2 µM | 89 nM | COc1cc(F)ccc1-c1ncnc(Nc2cccc(CS(=N)(=O)C3CCOCC3)c2)n1 (racemic) [Example 58, (rac)-4-(4-Fluoro-2-methoxyphenyl)-N-(3-{[S-(tetrahydro-2H-pyran-4-yl)sulfonimidoyl]methyl}phenyl)-1,3,5-triazin-2-amine]
8 | 2.1 µM | 59 nM | CS(=N)(=O)Cc1cccc(Nc2ncnc(-c3cccc4c3OC(F)(F)O4)n2)c1 (racemic) [Example 19, (rac)-4-(2,2-Difluoro-1,3-benzodioxol-4-yl)-N-{3-[(S-methylsulfonimidoyl)methyl]phenyl}-1,3,5-triazin-2-amine]
9 | 0.3 µM | 2 nM | COc1cc(F)ccc1-c1ncnc(Nc2cccc(CS(=O)(=NC#N)C3CC3)c2)n1 (racemic) [Example 113, (rac)-[Cyclopropyl(3-{[4-(4-fluoro-2-methoxyphenyl)-1,3,5-triazin-2-yl]amino}benzyl)oxido-λ^6-sulfanylidene]cyanamide]
10 | 3.1 µM | 64 nM | CS(=N)(=O)Cc1cccc(Nc2ncnc(-c3cccc4c3OCC4)n2)c1 (single isomer, unassigned) [Example 35, 4-(2,3-Dihydro-1-benzofuran-7-yl)-N-{3-[(S-methylsulfonimidoyl)methyl]phenyl}-1,3,5-triazin-2-amine]
11 | 2.9 µM | 50 nM | CS(=N)(=O)Cc1cccc(Nc2ncnc(-c3cccc4c3OCC4)n2)c1 (single isomer, unassigned) [Example 36, 4-(2,3-Dihydro-1-benzofuran-7-yl)-N-{3-[(S-methylsulfonimidoyl)methyl]phenyl}-1,3,5-triazin-2-amine]
12 | 2.6 µM | 36 nM | CN=S(C)(=O)Cc1cccc(Nc2ncnc(-c3ccc(F)cc3OC)n2)c1 (racemic) [Example 41, (rac)-N-{3-[(N,S-Dimethylsulfonimidoyl)methyl]phenyl}-4-(4-fluoro-2-methoxyphenyl)-1,3,5-triazin-2-amine]
13 | 0.4 µM |  | COc1cc(F)ccc1-c1ncnc(Nc2cc(F)c(F)c(CS(C)(=N)=O)c2)n1 (racemic) [Example 106, (rac)-N-{3,4-Difluoro-5-[(S-methylsulfonimidoyl)methyl]phenyl}-4-(4-fluoro-2-methoxyphenyl)-1,3,5-triazin-2-amine]
14 | 9.5 µM | 93 nM | COc1cc(Cl)ccc1-c1ncnc(Nc2cccc(CS(C)(=N)=O)c2)n1 (single isomer, unassigned) [Example 13, 4-(4-Chloro-2-methoxyphenyl)-N-{3-[(S-methylsulfonimidoyl)methyl]phenyl}-1,3,5-triazin-2-amine]
15 | 1.6 µM | 14 nM | CS(=N)(=O)Cc1cccc(Nc2ncnc(-c3cccc4c3OCCO4)n2)c1 (racemic) [Example 38, (rac)-4-(2,3-Dihydro-1,4-benzodioxin-5-yl)-N-{3-[(S-methylsulfonimidoyl)methyl]phenyl}-1,3,5-triazin-2-amine]
16 | 2.2 µM |  | CCOC(=O)N=S(C)(=O)Cc1cccc(Nc2ncnc(-c3ccc(F)cc3OC)n2)c1 (racemic) [Example 1, (rac)-Ethyl [(3-{[4-(4-fluoro-2-methoxyphenyl)-1,3,5-triazin-2-yl]amino}benzyl)(methyl)oxido-λ^6-sulfanylidene]carbamate]
17 | 6.5 µM | 35 nM | CCOC(=O)N=S(C)(=O)Cc1cccc(Nc2ncnc(-c3ccccc3Oc3ccccc3)n2)c1 (racemic) [Example 47, (rac)-Ethyl [methyl(oxido)(3-{[4-(2-phenoxyphenyl)-1,3,5-triazin-2-yl]amino}benzyl)-λ^6-sulfanylidene]carbamate]
18 | 7.6 µM | 100 nM | COc1ccccc1-c1ncnc(Nc2cccc(CS(C)(=N)=O)c2)n1 (single isomer, unassigned) [Example 27, 4-(2-Methoxyphenyl)-N-{3-[(S-methylsulfonimidoyl)methyl]phenyl}-1,3,5-triazin-2-amine]
19 | 3.9 µM | 33 nM | CCOC(=O)N=S(C)(=O)Cc1cccc(Nc2ncnc(-c3cccc4c3OC(F)(F)O4)n2)c1 (racemic) [Example 18, (rac)-Ethyl [(3-{[4-(2,2-difluoro-1,3-benzodioxol-4-yl)-1,3,5-triazin-2-yl]amino}benzyl)(methyl)oxido-λ^6-sulfanylidene]carbamate]
20 | 6.8 µM | 74 nM | COc1cc(Cl)ccc1-c1ncnc(Nc2cccc(CS(C)(=N)=O)c2)n1 (racemic) [Example 12, (rac) 4-(4-Chloro-2-methoxyphenyl)-N-{3-[(S-methylsulfonimidoyl)methyl]phenyl}-1,3,5-triazin-2-amine]
21 | 3.5 µM | 56 nM | COc1ccc(F)cc1-c1ncnc(Nc2cccc(CS(C)(=N)=O)c2)n1 (racemic) [Example 21, (rac)-4-(5-Fluoro-2-methoxyphenyl)-N-{3-[(S-methylsulfonimidoyl)methyl]phenyl}-1,3,5-triazin-2-amine]
22 |  | 99 nM | CC(Oc1cc(F)ccc1-c1ncnc(Nc2cccc(CS(C)(=N)=O)c2)n1)C1CCCC1 (stereo not shown) [Example 63, 4-[2-(1-cyclopentylethoxy)-4-fluorophenyl]-N-{3-[(S-methylsulfonimidoyl)methyl]phenyl}-1,3,5-triazin-2-amine]
